Read-outs that look alike come from different tables or passages of the source.
Legend:
recombinant human MMP-2 = molecular target: T1, recombinant human MMP-2 (Homo sapiens, UniProt P08253); test: In-vitro fluorescence assay of MMP-2 activity; assay type: biochemical
T1 sequence (P08253 110-660): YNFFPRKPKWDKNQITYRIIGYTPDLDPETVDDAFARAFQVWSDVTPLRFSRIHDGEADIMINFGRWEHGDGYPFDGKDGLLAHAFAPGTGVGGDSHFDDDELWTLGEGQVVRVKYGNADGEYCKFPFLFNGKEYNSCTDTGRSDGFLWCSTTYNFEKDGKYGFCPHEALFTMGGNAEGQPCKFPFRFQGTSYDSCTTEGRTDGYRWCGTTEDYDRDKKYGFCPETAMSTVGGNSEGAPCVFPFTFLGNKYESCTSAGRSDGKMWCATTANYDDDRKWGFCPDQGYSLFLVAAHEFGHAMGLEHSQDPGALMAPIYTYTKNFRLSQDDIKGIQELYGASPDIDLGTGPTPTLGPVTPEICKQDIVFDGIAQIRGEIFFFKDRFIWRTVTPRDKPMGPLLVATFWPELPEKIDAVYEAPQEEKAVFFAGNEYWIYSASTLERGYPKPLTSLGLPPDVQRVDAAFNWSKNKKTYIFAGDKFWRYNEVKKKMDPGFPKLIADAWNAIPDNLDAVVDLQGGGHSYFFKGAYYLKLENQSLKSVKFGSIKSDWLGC

MMP-13 = MMP-13 (Homo sapiens, UniProt P45452); test: In-vitro fluorescence assay of MMP-13 activity; assay type: biochemical
Description: See Knight, C. […] […].
The method was essentially the same as for the determination of MMP-1 activity, described above, except that the final concentration of purified MMP in the assay was 0.5 nM, prepared by diluting with the assay buffer.

[1] = test system: LPS-induced TNF-α secretion in human whole blood; test: Human whole blood assay for LPS-induced TNF-α secretion; assay type: cell-based; conditions: Homo sapiens, LPS 100 ng/ml, read-out: TNF Secretion HWB IC50
Description: procedure is essentially as described in Newton, R. C., et al., (2001) Ann Rheum […]32, incorporated by reference herein in its entirety. The basic measurement of the assay is the percentage of inhibition of TNF-α secretion and the IC50 determination by a […] model-39 of LSW data analysis tool. 350 μl of fresh human blood drawn from healthy volunteers were pre-incubated with compounds for one hour at the various concentrations at 37° C. with turning generally, the final DMSO concentrations should be kept below 0.2%. At the end of cubation, LPS (Sigma, L2262) was added to the blood at 100 ng/ml and the samples were further incubated for 4 hours or overnight at 37° C. with constant rotation. At the end of the incubation period, 650 μl of serum-free medium was added to the blood samples and the samples were centrifuged at 1500 rpm for 15 minutes. 500 μl of supernate was collected and frozen at -80° C. The TNF-α and other proinflammatory cytokines were detected by ELISA assay according to the manufacturer's instruction (Biosource International, Inc., Camarillo, Calif.).

[2] = molecular target: T2, TACE (catalytic domain of the recombinant TACE protein) (Homo sapiens, UniProt P78536); test: TACE FRET assay using TACE Cat; assay type: biochemical; conditions: pro-TNF-α substrate peptide
T2 construct: The catalytic domain of the recombinant TACE protein was expressed and purified; made in house
Description: The procedure is essentially as described in Jin, G. et al., Analytical Biochemistry (2002) 302, 269-275, incorporated by reference herein in its entirety. […] K is the IC50. Generally, n and B are floated, noting that n (hill slope) should be close to 1 and B (background offset) to 0.
Pro-TNF-α substrate peptide Abz-[…]-Dpa (AnaSpec, San Jose, Calif., WARC-1) was prepared as a 2 mM stock solution in the TACE assay buffer (50 mM Tris-HCI, pH 7.4, 25 mM NaCl, 4% Glycerol, 0.005% Brij 35). The catalytic domain of the recombinant TACE protein was expressed and purified. The TACE protein (1 ug/ml) was pretreated with the inhibitors at various concentrations for 10 min at room temperature. The reaction was initiated by the addition of the substrate peptide. The increase in fluorescence was monitored at an Excitation of 320 nm and an Emission of 420 nm over a period of 10 min. The initial rate (slope) of the reaction was determined using a fluorescence plate reader (Molecular Devices, Spectra Max Gemini XS).

[3] = test system: TNF-α secretion in Raw 264.7 cells; test: Cell-based assay for inhibition of TNF-α secretion in Raw cells; conditions: Mus musculus, RAW264.7, LPS 100 ng/ml, 4 hr
Description: The basic measurement of the assay is the percentage of inhibition of TNF-α secretion and the IC50 determination by a fitting with the model-39 of LSW data analysis tool. […] Cells are split twice a week by scraping and 1 to 10 or 20 dilutions. For testing compounds, cells are cultured to confluence and are seeded the day before the experiment in 24 well culture dishes at 0.5 to 1 million/ml well. On the next morning, the medium from the overnight culture is replaced with the fresh growth medium. The compounds are added at various concentration at the 0.2% of final DMSO concentrations (10 μl of a 20% DMSO solution containing testing compounds is added to each well). The cells are pre-incubated with compounds for 1 hr. LPS (Sigma, L2262) is added to cells at a final concentration of 100 ng/ml (10 μl of a […] LPS solution freshly diluted from a 1 mg/ml LPS stock solution in PBS is added to each well) and cells are further incubated for 4 hr at 37° C. 1 ml of the supernatant was collected, cells are spun down and the supernatants are frozen at −80° C. until use. The TNF-α and other proinflammatory cytokines were detected by an ELISA assay according to the manufacturer's instructions (Biosource International, Inc., Camarillo, Calif. (For IL-1b measurement in Raw cells, one round of freeze and thaw of the cells was required).

T2 sequence (P78536 223-474 limits assumed): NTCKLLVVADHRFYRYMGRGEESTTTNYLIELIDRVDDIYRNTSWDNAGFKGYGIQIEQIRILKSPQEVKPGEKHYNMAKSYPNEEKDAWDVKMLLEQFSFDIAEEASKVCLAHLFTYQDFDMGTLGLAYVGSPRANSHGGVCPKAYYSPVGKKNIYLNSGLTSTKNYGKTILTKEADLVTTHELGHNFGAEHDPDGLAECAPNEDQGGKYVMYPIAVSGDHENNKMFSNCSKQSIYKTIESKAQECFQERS

IC50 (recombinant human MMP-2) [µM]	IC50 (MMP-13) [µM]	IC50 [1] [µM]	IC50 ([2]; FRET, read-out: TACE IC50) [µM]	IC50 [3] [µM]	SMILES	IC50 ([2]; TACE IC50, FRET) [µM]
> 16.7	14.4	0.8	0.0005	0.46	Cc1cc(COc2ccc(S(=O)(=O)N[C@@H]3CCN(C(=O)OC(C)(C)C)CC3C(=O)NO)cc2)c2ccccc2n1 (mixture of isomers) [Example 28, tert-Butyl (3S,4R)-3-[(hydroxyamino)carbonyl]-4-[({4-[(2-methylquinolin-4-yl)methoxy]phenyl}sulfonyl)amino]piperidine-1-carboxylate]	
> 16.7	> 16.7	9.9	0.0022		Cc1cc(COc2ccc(S(=O)(=O)N[C@H]3[C@@H](C(=O)NO)[C@@H]4CC[C@H]3O4)cc2)c2ccccc2n1 (relative stereo) [Example 2, exo-N-Hydroxy-3-[({4-[(2-methylquinolin-4-yl)methoxy]phenyl}sulfonyl)amino]-7-oxabicyclo[2.2.1]heptane-2-carboxamide]	
> 16.7	> 16.7	47	0.001		Cc1cc(COc2ccc(S(=O)(=O)N[C@@H]3[C@@H]4CC[C@@H](C4)[C@@H]3C(=O)NO)cc2)c2ccccc2n1 (relative stereo) [Example 6, endo-N-Hydroxy-3-[({4-[(2-methylquinolin-4-yl)methoxy]phenyl}sulfonyl)amino]bicyclo[2.2.1]heptane-2-carboxamide]	
> 16.7	> 16.7	34	0.0012		Cc1cc(COc2ccc(S(=O)(=O)N[C@H]3[C@@H](C(=O)NO)[C@H]4C=C[C@@H]3C4)cc2)c2ccccc2n1 (relative stereo) [Example 7, endo-N-Hydroxy-3-[({4-[(2-methylquinolin-4-yl)methoxy]phenyl}sulfonyl)amino]bicyclo[2.2.1]hept-5-ene-2-carboxamide]	
> 16.7	> 16.7	> 50	0.0015		Cc1cc(COc2ccc(S(=O)(=O)N(C)[C@H]3[C@@H](C(=O)NO)[C@H]4C=C[C@@H]3C4)cc2)c2ccccc2n1 (relative stereo) [Example 8, endo-N-Hydroxy-3-[methyl({4-[(2-methylquinolin-4-yl)methoxy]phenyl}sulfonyl)amino]bicyclo[2.2.1]hept-5-ene-2-carboxamide]	
> 16.7	> 16.7	9.3	0.0001		Cc1cc(COc2ccc(S(=O)(=O)N[C@H]3[C@@H](C(=O)NO)[C@@H]4C=C[C@H]3C4)cc2)c2ccccc2n1 (relative stereo) [Example 9, exo-N-Hydroxy-3-[({4-[(2-methylquinolin-4-yl)methoxy]phenyl}sulfonyl)amino]bicyclo[2.2.1] hept-5-ene-2-carboxamide]	
> 16.7	> 16.7	4.2	0.0011		Cc1cc(COc2ccc(S(=O)(=O)N[C@@H]3CC=CC[C@@H]3C(=O)NO)cc2)c2ccccc2n1 (relative stereo) [Example 10, cis-N-hydroxy-6-[({4-[(2-methylquinolin-4-yl)methoxy]phenyl}sulfonyl)amino]cyclohex-3-ene-1-carboxamide]	
> 16.7	> 16.7	2.2		0.08	Cc1cc(COc2ccc(S(=O)(=O)N[C@@H]3CCCC[C@@H]3C(=O)NO)cc2)c2ccccc2n1 (relative stereo) [Example 12, cis-N-hydroxy-2-[({4-[(2-methylquinolin-4-yl)methoxy]phenyl}sulfonyl)amino]cyclohexanecarboxamide]	
> 16.7	> 16.7	0.27		0.09	Cc1cc(COc2ccc(S(=O)(=O)N[C@@H]3CNC[C@@H]3C(=O)NO)cc2)c2ccccc2n1 (relative stereo) [Example 22, cis-N-Hydroxy4-[({4-[(2-methylquinolin-4-yl)methoxy]phenyl}sulfonyl)amino]pyrrolidine-3-carboxamide]	
> 16.7	> 16.7	43		0.911	Cc1cc(COc2ccc(S(=O)(=O)N(C)[C@H]3CCCC[C@@H]3C(=O)NO)cc2)c2ccccc2n1 (relative stereo) [Example 61, trans-N-hydroxy-2-[methyl({4-[(2-methylquinolin-4-yl)methoxy]phenyl}sulfonyl)amino]cyclohexanecarboxamide]	
			0.172		CN(C1C2CCC(C2)C1C(=O)NO)S(=O)(=O)c1ccc(OCc2ccc3ccccc3c2)cc1 (stereo in doubt) [Example 39, (1R,2S,3R,4S)-N-hydroxy-3-(methyl{[4-(2-naphthylmethoxy)phenyl]sulfonyl}amino)bicyclo[2.2.1]heptane-2-carboxamide]	
			0.056		CN(C1C2CCC(C2)C1C(=O)NO)S(=O)(=O)c1ccc(OCc2ccc3nonc3c2)cc1 (stereo in doubt) [Example 40, (1R,2S,3R,4S)-3-[{[4-(2,1,3-benzoxadiazol-5-ylmethoxy)phenyl]sulfonyl}(methyl)amino]-N-hydroxybicyclo[2.2.1]heptane-2-carboxamide]	
		14		0.44	Cc1cc(COc2ccc(S(=O)(=O)N[C@@H]3CCC[C@]3(CO)C(=O)NO)cc2)c2ccccc2n1 [Example 58]	

SMILES	IC50 (recombinant human MMP-2) [µM]	IC50 (MMP-13) [µM]	IC50 [1] [µM]	IC50 ([2]; FRET, read-out: TACE IC50) [µM]	IC50 [3] [µM]	IC50 ([2]; TACE IC50, FRET) [µM]
Cc1cc(COc2ccc(S(=O)(=O)NC3C(C(=O)NO)C4CCC3N4C(=O)OC(C)(C)C)cc2)c2ccccc2n1 (centres unmarked) [Example 37, tert-Butyl 2-[(hydroxyamino)carbonyl]-3-[({4-[(2-methylquinolin-4-yl)methoxy]phenyl}sulfonyl)amino]-7-azabicyclo[2.2.1]heptane-7-carboxylate]	> 16.7	> 16.7	59			0.01
Cc1cc(COc2ccc(S(=O)(=O)NC3C4CCC(N4)C3C(=O)NO)cc2)c2ccccc2n1 (centres unmarked) [Example 38, 3-[4-(2-Methyl-quinolin-4-ylmethoxy)-benzenesulfonylamino]-7-aza-bicyclo[2.2.1]heptane-2-carboxylic acid hydroxyamide]	8.68	> 16.7	26			0.051

— US7595327B2, “Beta-sulfonamide hydroxamic acid inhibitors of tace/matrix metalloproteinase” (priority 2005, dated 2009)
